Test results as given in patent US20140057915A1, “KINASE INHIBITORS” (TOPIVERT PHARMA LIMITED, priority 2012, published 2014).

Legend:
GSK3α [1] = target: T1, GSK3α (Homo sapiens, UniProt P49840); test: GSK 3α enzyme inhibition (FRET), Method 1; assay type: biochemical; conditions: Table 4a1
Method in brief: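 Steps: preincubate GSK3α with compound 2 hr at room temperature; start reaction with peptide and ATP for 1 hr; develop with site-specific protease for 1 hr; measure fluorescence and take the coumarin/fluorescein ratio as the phosphorylation level.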

Syk = Syk (Homo sapiens, UniProt P43405); test: Syk enzyme inhibition (FRET); assay type: biochemical
Method in brief: (§1)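 Enzyme was preincubated with test compound (added as 4, 0.4, 0.04 or 0.004 μg/mL solutions) for 2 hr at RT. FRET peptide (8 μM solution) and ATP solution (800 μM for c-Src, 60 μM for Syk) were then added for 1 hr, followed by 1 hr protease development.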

[2] = system: ICAM-1 expression, BEAS2B cells; test: Poly I:C-induced ICAM-1 expression in BEAS2B cells; assay type: cell-based; conditions: Homo sapiens, BEAS-2B; read-out: Poly IC induced ICAM1 in BEAS2B, IC50
Method in brief: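 Cell-based ELISA for surface ICAM-1 in human BEAS2B cells 18 h after transfection with the RNA-virus mimic poly I:C (1 μg/mL, with Oligofectamine), compounds added 2 h beforehand. OD450–655 divided by Crystal Violet OD595 per well; percent inhibition relative to vehicle.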

cSrc = cSrc (Homo sapiens, UniProt P12931); test: c-Src enzyme inhibition (FRET); assay type: biochemical
Method in brief: as §1

d-U937 cells = test: Cell viability: MTT assay; assay type: cell-based, human; conditions: 1 μg/mL
Method in brief: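 MTT reduction (1 h, DMSO solubilisation, A550) measured after compound treatment at 1 or 10 μg/mL of differentiated U937 cells for 4 h (5% FCS RPMI1640) or 24 h (10% FCS). Percentage viability loss computed relative to 0.5% DMSO vehicle, with increases tabulated as negative values.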

PBMC cells = test: Cell mitosis assay; assay type: cell-based; conditions: Homo sapiens, read-out: % Inhibition of mitosis in PBMC cells at 5 μg/mL
Experimental: PBMCs from healthy subjects are separated from whole blood (Quintiles, London, UK) using a density gradient (Histopaque®-1077, Sigma-Aldrich, Poole, UK). The PBMCs (3 million cells per sample) are subsequently treated with 2% PHA (Sigma-Aldrich, Poole, UK) for 48 hr, followed by a 20 hr exposure to varying concentrations of test compounds. At 2 hr before collection, PBMCs are treated with demecolcine (0.1 μg/mL; Invitrogen, Paisley, UK) to arrest cells in metaphase. […] Fluorescence is observed using an ATTUNE flow cytometer (Invitrogen, Paisley, UK), gating for lymphocytes.

[3] = system: TNFα release, d-U937 cells; test: LPS-induced TNFα release in d-U937 cells; assay type: cell-based; conditions: Homo sapiens, dU937; relative to 10 μg/mL BIRB796; Table 4c1; read-out: LPS Induced Release of Cytokine in d-U937 Cells, TNFα REC50
Method in brief: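 Sandwich ELISA quantifies cytokine in supernatants after 4 hr LPS challenge (0.1 μg/mL) of PMA-differentiated (100 ng/mL, 48–72 hr) U937 macrophages given compound 2 hr beforehand. REC50 derived from concentration-response curve, inhibition calculated relative to vehicle.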

[4] = system: IL-8 release, d-U937 cells; test: LPS-induced IL-8 release in d-U937 cells; assay type: cell-based; conditions: Homo sapiens, dU937; Table 4c1; read-out: LPS Induced Release of Cytokine in d-U937 Cells, IL-8 IC50
Method in brief: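 IL-8 release after a 4 hr challenge with LPS (0.1 μg/mL, E. coli 0111:B4) following a 2 hr compound pretreatment. Cells were human U937 monocytes differentiated to macrophage-type with PMA 100 ng/mL for 48–72 hr. Relative 50% effective concentration derived from concentration–response data.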

IL-2 release, PBMCs = test: IL-2 release in CD3/CD28 stimulated PBMC cells; assay type: cell-based; conditions: Homo sapiens, read-out: IC50 Values for Inhibition of Cytokine Release, PBMCs, IL-2
Experimental: (§2) (c) IL-2 and IFN Gamma Release in CD3/CD28 Stimulated PBMC Cells
(§3) PBMCs from healthy subjects are separated from whole blood using a density gradient (Lymphoprep, Axis-Shield Healthcare). Cells are added to a 96 well plate pre-coated with a mixture of […] monoclonal antibodies (0.3 ug/ml eBioscience and 3 ug/ml BD Pharmingen respectively). Compound at the desired concentration is then added to the wells and the plate left for 3 days under normal tissue culture conditions. Supernatants are harvested and IL-2 and IFN gamma release determined by Sandwich ELISA (Duo-set, R&D System). The IC50 is determined from the dose response curve.

IFN gamma release, PBMCs = test: IFN gamma release in CD3/CD28 stimulated PBMC cells; assay type: cell-based; conditions: Homo sapiens, read-out: IC50 Values for Inhibition of Cytokine Release, PBMCs, IFNγ
Experimental: as §2, §3

GSK3α [5] = target: T1, GSK3α; test: GSK 3α enzyme inhibition (FRET), Method 2; assay type: biochemical; conditions: Table 4a2, different laboratory
IL-8 release, PBMCs = test: LPS-induced IL-8 release in PBMC cells; assay type: cell-based; conditions: Homo sapiens, LPS stimulated, read-out: IC50 Values for Inhibition of Cytokine Release, PBMCs, IL-8
Experimental: (b) LPS-Induced TNFα/IL-8 Release in PBMC Cells
Peripheral blood mononuclear cells (PBMCs) from healthy subjects are separated from whole blood using a density gradient (Lymphoprep, Axis-Shield Healthcare). The PBMCs are seeded in 96 well plates and treated with compounds at the desired concentration for 2 hours before addition of 1 ng/ml LPS (Escherichia Coli 0111:B4 from Sigma Aldrich) for 24 hours under normal tissue culture conditions (37° C., 5% CO2). The supernatant is harvested for determination of […] concentrations by sandwich ELISA (Duo-set, R&D systems) and read on the fluorescence microplate reader (Varioskan® Flash, ThermoFisher Scientific).

[6] = Table 4a2, different laboratory

cSrc, sequence (P12931 whole entry): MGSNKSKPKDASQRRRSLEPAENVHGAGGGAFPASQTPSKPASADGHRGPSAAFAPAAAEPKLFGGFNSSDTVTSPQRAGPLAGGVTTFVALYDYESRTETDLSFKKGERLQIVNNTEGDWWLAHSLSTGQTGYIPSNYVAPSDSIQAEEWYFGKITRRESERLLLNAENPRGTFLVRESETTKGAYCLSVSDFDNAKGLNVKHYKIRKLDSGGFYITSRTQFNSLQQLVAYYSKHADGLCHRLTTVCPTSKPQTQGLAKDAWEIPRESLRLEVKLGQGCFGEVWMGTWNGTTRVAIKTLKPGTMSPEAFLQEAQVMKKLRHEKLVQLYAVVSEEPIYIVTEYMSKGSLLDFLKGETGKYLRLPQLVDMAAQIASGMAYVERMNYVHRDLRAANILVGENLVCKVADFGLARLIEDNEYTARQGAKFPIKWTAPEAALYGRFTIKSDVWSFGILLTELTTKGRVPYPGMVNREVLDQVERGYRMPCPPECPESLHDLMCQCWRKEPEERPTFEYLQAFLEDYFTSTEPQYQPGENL
T1 sequence (P49840 whole entry): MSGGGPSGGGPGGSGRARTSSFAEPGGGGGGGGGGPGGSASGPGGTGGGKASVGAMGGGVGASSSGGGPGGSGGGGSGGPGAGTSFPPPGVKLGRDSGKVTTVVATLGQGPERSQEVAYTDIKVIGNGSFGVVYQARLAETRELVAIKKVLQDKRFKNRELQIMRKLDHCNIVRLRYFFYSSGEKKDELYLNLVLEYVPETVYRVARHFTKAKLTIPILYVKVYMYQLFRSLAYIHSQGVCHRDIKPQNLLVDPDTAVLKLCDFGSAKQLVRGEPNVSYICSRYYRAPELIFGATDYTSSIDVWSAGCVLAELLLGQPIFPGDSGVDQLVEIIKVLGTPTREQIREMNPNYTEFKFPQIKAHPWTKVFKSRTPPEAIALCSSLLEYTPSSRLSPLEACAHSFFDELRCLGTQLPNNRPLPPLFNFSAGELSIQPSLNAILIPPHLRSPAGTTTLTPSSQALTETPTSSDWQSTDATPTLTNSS

| Structure (SMILES) | IC50 (GSK3α [1]) | IC50 (Syk; Table 4a1) | IC50 (cSrc; Table 4a1) | EC50 [3] | IC50 [4] | IC50 (Syk; [6]) | IC50 (cSrc; [6]) | IC50 (GSK3α [5]) | IC50 [2] | Cell viability at time point in d-U937 cells, 4 h (d-U937 cells) | Cell viability at time point in d-U937 cells, 24 h (d-U937 cells) | inhibition at 5 µg/mL (PBMC cells) | IC50 (IL-2 release, PBMCs) | IC50 (IFN gamma release, PBMCs) | IC50 (IL-8 release, PBMCs) |
| --- | --- | --- | --- | --- | --- | --- | --- | --- | --- | --- | --- | --- | --- | --- | --- |
| COc1cc(Nc2nccc(Oc3ccc(NC(=O)Nc4cc(C(C)C)nn4-c4ccc(C)cc4)c4ccccc34)n2)cc(C(=O)NCCN(C)C)c1 [Example 5, N-(2-(Dimethylamino)ethyl)-3-((4-((4-(3-(3-isopropyl-1-(p-tolyl)-1H-pyrazol-5-yl)ureido)naphthalen-1-yl)oxy)pyrimidin-2-yl)amino)-5-methoxybenzamide] | 1470 nM | 7 nM | 2 nM | 0.2 nM | 1.3 nM |  |  |  | 0.2 nM | −ve (−ve and +ve indicate that the value is below and above respectively, the no significant effect threshold, defined as 30% inhibition at 1 μg/mL at the time point indicated) | −ve (−ve and +ve indicate that the value is below and above respectively, the no significant effect threshold, defined as 30% inhibition at 1 μg/mL at the time point indicated) | 28.3% |  |  |  |
| COc1cc(Nc2nccc(Oc3ccc(NC(=O)Nc4cc(C(C)C)nn4-c4ccc(C)cc4)c4ccccc34)n2)cc(C(=O)N2CCOCC2)c1 [Example 12, 1-(3-Isopropyl-1-(p-tolyl)-1H-pyrazol-5-yl)-3-(4-((2-((3-methoxy-5-(morpholine-4-carbonyl)phenyl)amino)pyrimidin-4-yl)oxy)naphthalen-1-yl)urea] | 509 nM | 16 nM | 5 nM | 0.5 nM | 1 nM |  |  |  | 2.5 nM | −ve (−ve and +ve indicate that the value is below and above respectively, the no significant effect threshold, defined as 30% inhibition at 1 μg/mL at the time point indicated) | −ve (−ve and +ve indicate that the value is below and above respectively, the no significant effect threshold, defined as 30% inhibition at 1 μg/mL at the time point indicated) | 27.8% |  |  |  |
| Cc1ccc(-n2nc(C(C)C)cc2NC(=O)Nc2ccc(Oc3ccnc(Nc4cc(C)cc(C(=O)NCCN5CCOCC5)c4)n3)c3ccccc23)cc1 [Example 44, 3-((4-((4-(3-(3-isopropyl-1-(p-tolyl)-1H-pyrazol-5-yl)ureido)naphthalen-1-yl)oxy)pyrimidin-2-yl)amino)-5-methyl-N-(2-morpholinoethyl)benzamide] | 3950 nM | 17 nM | 9 nM | 0.2 nM | 0.3 nM |  |  |  | 1.9 nM | −ve (−ve and +ve indicate that the value is below and above respectively, the no significant effect threshold, defined as 30% inhibition at 1 μg/mL at the time point indicated) | −ve (−ve and +ve indicate that the value is below and above respectively, the no significant effect threshold, defined as 30% inhibition at 1 μg/mL at the time point indicated) | 37.2% |  |  |  |
| COc1ccc(-n2nc(C(C)C)cc2NC(=O)Nc2ccc(Oc3ccnc(Nc4cc(OC)cc(C(=O)NCCO)c4)n3)c3ccccc23)cc1 [Example 65, N-(2-hydroxyethyl)-3-((4-((4-(3-(3-isopropyl-1-(4-methoxyphenyl)-1H-pyrazol-5-yl)ureido)naphthalen-1-yl)oxy)pyrimidin-2-yl)amino)-5-methoxybenzamide] | > 14200 nM | 61 nM | 8 nM | 1.7 nM | 0.6 nM |  |  |  | 8.3 nM | −ve (−ve and +ve indicate that the value is below and above respectively, the no significant effect threshold, defined as 30% inhibition at 1 μg/mL at the time point indicated) | −ve (−ve and +ve indicate that the value is below and above respectively, the no significant effect threshold, defined as 30% inhibition at 1 μg/mL at the time point indicated) | 36.7% |  |  |  |
| C#Cc1cc(Nc2nccc(Oc3ccc(NC(=O)Nc4cc(C(C)(C)C#N)nn4-c4ccc(C)cc4)c4ccccc34)n2)cc(C(=O)NCCN2CCOCC2)c1 [Example 78, 3-((4-((4-(3-(3-(2-Cyanopropan-2-yl)-1-(p-tolyl)-1H-pyrazol-5-yl)ureido)-naphthalen-1-yl)oxy)pyrimidin-2-yl)amino)-5-ethynyl-N-(2-morpholinoethyl)benzamide] |  |  |  |  |  | 23 nM | 8 nM | 2810 nM |  |  |  | 2.1% | 27.3 nM | 2.4 nM | 0.9 nM |

More lines, main results first:

| IC50 (GSK3α [1]) | IC50 (Syk; Table 4a1) | IC50 (cSrc; Table 4a1) | EC50 [3] | IC50 [4] | IC50 (Syk; [6]) | IC50 (cSrc; [6]) | IC50 (GSK3α [5]) | Structure (SMILES) | IC50 [2] | Cell viability at time point in d-U937 cells, 4 h (d-U937 cells) | Cell viability at time point in d-U937 cells, 24 h (d-U937 cells) | inhibition at 5 µg/mL (PBMC cells) | IC50 (IL-2 release, PBMCs) | IC50 (IFN gamma release, PBMCs) | IC50 (IL-8 release, PBMCs) |
| --- | --- | --- | --- | --- | --- | --- | --- | --- | --- | --- | --- | --- | --- | --- | --- |
|  |  |  |  |  |  |  | 12200 nM | C#Cc1cc(Nc2nccc(Oc3ccc(NC(=O)Nc4cc(C(C)(C)C)nn4-c4ccc(C)cc4)c4ccccc34)n2)cc(C(=O)NC(C)(C)CN2CCOCC2)c1 [Example 82, 3-((4-((4-(3-(3-(tert-Butyl)-1-(p-tolyl)-1H-pyrazol-5-yl)ureido)naphthalen-1-yl)oxy)pyrimidin-2-yl)amino)-5-ethynyl-N-(2-methyl-1-morpholinopropan-2-yl)-benzamide] |  |  |  | -6.3% | 37.4 nM | 3.9 nM | 7.1 nM |
|  |  |  |  |  | 33 nM | 15 nM | ≥ 13800 nM | C#Cc1cc(Nc2nccc(Oc3ccc(NC(=O)Nc4cc(C(C)(C)C)nn4-c4ccc(OC)cc4)c4ccccc34)n2)cc(C(=O)NCCOC)c1 [Example 84, 3-((4-((4-(3-(3-(tert-Butyl)-1-(4-methoxyphenyl)-1H-pyrazol-5-yl)ureido)-naphthalen-1-yl)oxy)pyrimidin-2-yl)amino)-5-ethynyl-N-(2-methoxyethyl)benzamide] |  |  |  | 0.5% | 16 nM | 2.2 nM | 1.6 nM |
|  |  |  |  |  | 92 nM | 33 nM | 7950 nM | C#Cc1cc(Nc2nccc(Oc3ccc(NC(=O)Nc4cc(C(C)(C)C)nn4-c4ccc(OC)cc4)c4ccccc34)n2)cc(C(=O)N[C@@H](C)COC)c1 [Example 85, (S)-3-((4-((4-(3-(3-(tert-Butyl)-1-(4-methoxyphenyl)-1H-pyrazol-5-yl)ureido)-naphthalen-1-yl)oxy)pyrimidin-2-yl)amino)-5-ethynyl-N-(1-methoxypropan-2-yl)-benzamide] |  |  |  | 6.6% | 27.3 nM | 3.1 nM | 2.8 nM |
